Patent US20070010671A1, “Novel quinazoline derivatives and methods of treatment related to the use thereof” (priority 2003, published 2007)

The compounds below were run against MCH receptor (Homo sapiens, UniProt Q99705) (assay: High throughput functional screening FLIPR/FDSS6000: inhibition of MCH-evoked intracellular Ca2+ changes). Conditions: class by percent of control at 10^-7 M or IC50.
Type: cell-based
In short: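 Fluo4 fluorescence (Ex 488 nm, Em 530 nm) tracked MCH-evoked [Ca2+]i transients over 290 s by FLIPR or FDSS. Cells carried a constitutively active, non-endogenous receptor version. Compounds were added 3 min before a 50 nM MCH challenge.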

Compound	class
COc1ccc(NC(=O)NC[C@H]2CC[C@@H](Nc3nc(N(C)C)c4ccccc4n3)CC2)c([N+](=O)[O-])c1 [compound 557]	3 (Class 3: The value of percent of control at 10^−7 M was more than 60% or the value of IC50 was more than 200 nM.)
Cc1cccc(NC(=S)NC[C@H]2CC[C@@H](Nc3nc(N(C)C)c4ccccc4n3)CC2)c1 [compound 605]	3 (Class 3: The value of percent of control at 10^−7 M was more than 60% or the value of IC50 was more than 200 nM.)
COc1ccc(NC(=O)NC[C@H]2CC[C@@H](Nc3nc(N(C)C)c4ccccc4n3)CC2)cc1 [compound 444, N-[(cis-4-{[4-(dimethylamino)quinazolin-2-yl]amino}cyclohexyl)methyl]-N′-(4-methoxyphenyl)urea]	2 (Class 2: The value of percent of control at 10^−7 M was from 40% to 60% or the value of IC50 was from 50 nM to 200 nM.)
CN(C)c1nc(N[C@H]2CC[C@@H](CNC(=O)Nc3ccc(F)c([N+](=O)[O-])c3)CC2)nc2ccccc12 [compound 436]	3 (Class 3: The value of percent of control at 10^−7 M was more than 60% or the value of IC50 was more than 200 nM.)
CC(NC(=S)N[C@H]1CC[C@@H](Nc2nc(N(C)C)c3ccccc3n2)CC1)c1ccc(F)cc1 (relative stereo) [compound 273, N-(cis-4-{[4-(dimethylamino)quinazolin-2-yl]amino}cyclohexyl)-N′-[1-(4-fluorophenyl)ethyl]thiourea]	2 (Class 2: The value of percent of control at 10^−7 M was from 40% to 60% or the value of IC50 was from 50 nM to 200 nM.)
CN(C)c1nc(N[C@H]2CC[C@@H](CNC(=S)Nc3ccc(Cl)cc3C(F)(F)F)CC2)nc2ccccc12 [compound 737]	3 (Class 3: The value of percent of control at 10^−7 M was more than 60% or the value of IC50 was more than 200 nM.)
CN(C)c1nc(N[C@H]2CC[C@@H](NC(=S)NC3CCCCCCC3)CC2)nc2ccccc12 [compound 287, N-cyclooctyl-N′-(cis-4-{[4-(dimethylamino)quinazolin-2-yl]amino}cyclohexyl)thiourea]	2 (Class 2: The value of percent of control at 10^−7 M was from 40% to 60% or the value of IC50 was from 50 nM to 200 nM.)
CN(C)c1nc(N[C@H]2CC[C@@H](CNC(=O)Nc3ccc(F)c(C(F)(F)F)c3)CC2)nc2ccccc12 [compound 552]	3 (Class 3: The value of percent of control at 10^−7 M was more than 60% or the value of IC50 was more than 200 nM.)
CSc1cccc(NC(=S)NC[C@H]2CC[C@@H](Nc3nc(N(C)C)c4ccccc4n3)CC2)c1 [compound 681]	3 (Class 3: The value of percent of control at 10^−7 M was more than 60% or the value of IC50 was more than 200 nM.)
CN(C)c1nc(N[C@H]2CC[C@@H](CNC(=O)Nc3ccccc3OC(F)F)CC2)nc2ccccc12 [compound 469, N-[2-(difluoromethoxy)phenyl]-N′-[(cis-4-{[4-(dimethylamino)quinazolin-2-yl]amino}cyclohexyl)methyl]urea]	2 (Class 2: The value of percent of control at 10^−7 M was from 40% to 60% or the value of IC50 was from 50 nM to 200 nM.)
Cc1cc(Br)cc(C)c1NC(=O)NC[C@H]1CC[C@@H](Nc2nc(N(C)C)c3ccccc3n2)CC1 [compound 753, N-(4-bromo-2,6-dimethylphenyl)-N′-[(cis-4-{[4-(dimethylamino)quinazolin-2-yl]amino}cyclohexyl)methyl]urea]	1 (Class 1: The value of percent of control at 10^−7 M was less than 40% or the value of IC50 was less than 50 nM.)
CN(C)c1nc(N[C@H]2CC[C@@H](CNC(=S)Nc3ccccc3Br)CC2)nc2ccccc12 [compound 625]	3 (Class 3: The value of percent of control at 10^−7 M was more than 60% or the value of IC50 was more than 200 nM.)
CN(C)c1nc(N[C@H]2CC[C@@H](NC(=S)Nc3cccc(F)c3)CC2)nc2ccccc12 [compound 226]	3 (Class 3: The value of percent of control at 10^−7 M was more than 60% or the value of IC50 was more than 200 nM.)
CCc1cccc(NC(=S)N[C@H]2CC[C@@H](Nc3nc(N(C)C)c4ccccc4n3)CC2)c1 [compound 307]	2 (Class 2: The value of percent of control at 10^−7 M was from 40% to 60% or the value of IC50 was from 50 nM to 200 nM.)
COc1cc([N+](=O)[O-])ccc1NC(=S)N[C@H]1CC[C@@H](Nc2nc(N(C)C)c3ccccc3n2)CC1 [compound 220, N-(cis-4-{[4-(dimethylamino)quinazolin-2-yl]amino}cyclohexyl)-N′-(2-methoxy-4-nitrophenyl)thiourea]	1 (Class 1: The value of percent of control at 10^−7 M was less than 40% or the value of IC50 was less than 50 nM.)
CN(C)c1nc(N[C@H]2CC[C@@H](CNC(=O)Nc3cccc(Cl)c3)CC2)nc2ccccc12 [compound 415, N-(3-chlorophenyl)-N′-[(cis-4-{[4-(dimethylamino)quinazolin-2-yl]amino}cyclohexyl)methyl]urea]	2 (Class 2: The value of percent of control at 10^−7 M was from 40% to 60% or the value of IC50 was from 50 nM to 200 nM.)
Cc1cccc(C)c1NC(=S)NC[C@H]1CC[C@@H](Nc2nc(N(C)C)c3ccccc3n2)CC1 [compound 593, N-[(cis-4-{[4-(dimethylamino)quinazolin-2-yl]amino}cyclohexyl)methyl]-N′-(2,6-dimethylphenyl)thiourea]	2 (Class 2: The value of percent of control at 10^−7 M was from 40% to 60% or the value of IC50 was from 50 nM to 200 nM.)
CN(C)c1nc(N[C@H]2CC[C@@H](NC(=S)Nc3ccc4c(c3)OCCO4)CC2)nc2ccccc12 [compound 368, N-(2,3-dihydro-1,4-benzodioxin-6-yl)-N′-(cis-4-{[4-(dimethylamino)quinazolin-2-yl]amino}cyclohexyl)thiourea]	1 (Class 1: The value of percent of control at 10^−7 M was less than 40% or the value of IC50 was less than 50 nM.)
CN(C)c1nc(N[C@H]2CC[C@@H](CNC(=S)Nc3c(Cl)c(Cl)cc(Cl)c3Cl)CC2)nc2ccccc12 [compound 715]	1 (Class 1: The value of percent of control at 10^−7 M was less than 40% or the value of IC50 was less than 50 nM.)
CN(C)c1nc(N[C@H]2CC[C@@H](CNC(=O)Nc3cccc(Cl)c3Cl)CC2)nc2ccccc12 [compound 425, N-(2,3-dichlorophenyl)-N′-[(cis-4-{[4-(dimethylamino)quinazolin-2-yl]amino}cyclohexyl)methyl]urea]	1 (Class 1: The value of percent of control at 10^−7 M was less than 40% or the value of IC50 was less than 50 nM.)
CN(C)c1nc(N[C@H]2CC[C@@H](CNC(=S)Nc3ccc(Cl)cc3)CC2)nc2ccccc12 [compound 588]	3 (Class 3: The value of percent of control at 10^−7 M was more than 60% or the value of IC50 was more than 200 nM.)
CN(C)c1nc(N[C@H]2CC[C@@H](NC(=S)Nc3cc(Cl)ccc3F)CC2)nc2ccccc12 [compound 376]	3 (Class 3: The value of percent of control at 10^−7 M was more than 60% or the value of IC50 was more than 200 nM.)

Same assay, conditions: class by percent of control at 10^-7 M or by IC50; read-out: class

Compound	IC50 [nM]
COc1ccccc1NC(=S)N[C@H]1CC[C@@H](Nc2nc(N(C)C)c3ccccc3n2)CC1 [compound 185, N-(cis-4-{[4-(dimethylamino)quinazolin-2-yl]amino}cyclohexyl)-N′-(2-methoxyphenyl)thiourea]	< 50
CC(=O)c1ccc(NC(=O)N[C@H]2CC[C@@H](Nc3nc(N(C)C)c4ccccc4n3)CC2)cc1 [compound 6]	> 200
CN(C)c1nc(N[C@H]2CC[C@@H](NC(=O)Nc3ccccc3Oc3ccccc3)CC2)nc2ccccc12 [compound 115, N-(cis-4-{[4-(dimethylamino)quinazolin-2-yl]amino}cyclohexyl)-N′-(2-phenoxyphenyl)urea]	50 to 200
CN(C)c1nc(N[C@H]2CC[C@@H](NC(=O)Nc3ccc(Cl)cc3Cl)CC2)nc2ccccc12 [compound 22, N-(2,4-dichlorophenyl)-N′-(cis-4-{[4-(dimethylamino)quinazolin-2-yl]amino}cyclohexyl)urea]	50 to 200
C=CCOC(=O)N[C@H]1CC[C@@H](Nc2nc(N(C)C)c3ccccc3n2)CC1 [compound 857]	> 200
CN(C)c1nc(N[C@H]2CC[C@@H](CNC(=O)OCc3ccc([N+](=O)[O-])cc3)CC2)nc2ccccc12 [compound 875]	50 to 200
CN(C)c1nc(N[C@H]2CC[C@@H](NC(=O)Nc3ccccc3)CC2)nc2ccccc12 [compound 52, N-(cis-4-{[4-(dimethylamino)quinazolin-2-yl]amino}cyclohexyl)-N′-phenylurea]	50 to 200
Cc1ccc(CNC(=O)N[C@H]2CC[C@@H](Nc3nc(N(C)C)c4ccccc4n3)CC2)cc1 [compound 830, N-(cis-4-{[4-(dimethylamino)quinazolin-2-yl]amino}cyclohexyl)-N′-(4-methylbenzyl)urea]	50 to 200

Same assay, conditions: class by percent of control at 10^−7 M or by IC50; read-out: class

Compound	IC50 [nM]
CN(C)c1nc(N[C@H]2CC[C@@H](C(=O)NCc3cccc(F)c3F)CC2)nc2ccccc12 [Example 1159, cis-N-(2,3-difluorobenzyl)-4-{[4-(dimethylamino)quinazolin-2-yl]amino}cyclohexanecarboxamide]	< 50
CN(C)c1nc(N[C@H]2CC[C@@H](C(=O)NCc3cccc(OC(F)F)c3)CC2)nc2ccccc12 [Example 1185, cis-N-[3-(difluoromethoxy)benzyl]-4-{[4-(dimethylamino)quinazolin-2-yl]amino}cyclohexanecarboxamide]	< 50
CN(C)c1nc(N[C@H]2CC[C@@H](CNC(=O)c3cccc(C(F)(F)F)c3)C2)nc2ccccc12 [Example 1127, N-[((1R,3S)-3-{[4-(dimethylamino)quinazolin-2-yl]amino}cyclopentyl)methyl]-3-(trifluoromethyl)benzamide]	< 50
COc1cc(OC)cc(C(=O)NC[C@@H]2CC[C@H](Nc3nc(N(C)C)c4ccccc4n3)C2)c1 [Example 1120, N-[((1R,3S)-3-{[4-(dimethylamino)quinazolin-2-yl]amino}cyclopentyl)methyl]-3,5-dimethoxybenzamide]	< 50
